Patent publication US8461328B2, “Tricyclic heterocyclic compounds, compositions and methods of use thereof” (Genentech, Inc., priority 2010, dated 2013)

Tests used:
Format in all cases: biochemical
JAK2 = biological target: T1, JAK2 (Homo sapiens, UniProt O60674); assay: JAK2 inhibition (Table 4); conditions: read-out: JAK2 Ki
T1 construct: made in house; host or cells: SF9 insect cells (baculovirus)

TYK2 = biological target: T2, TYK2 (Homo sapiens, UniProt P29597); assay: TYK2 inhibition (Table 4)
T2 construct: made in house; host or cells: SF9 insect cells (baculovirus)
T2 sequence (P29597 873-1187): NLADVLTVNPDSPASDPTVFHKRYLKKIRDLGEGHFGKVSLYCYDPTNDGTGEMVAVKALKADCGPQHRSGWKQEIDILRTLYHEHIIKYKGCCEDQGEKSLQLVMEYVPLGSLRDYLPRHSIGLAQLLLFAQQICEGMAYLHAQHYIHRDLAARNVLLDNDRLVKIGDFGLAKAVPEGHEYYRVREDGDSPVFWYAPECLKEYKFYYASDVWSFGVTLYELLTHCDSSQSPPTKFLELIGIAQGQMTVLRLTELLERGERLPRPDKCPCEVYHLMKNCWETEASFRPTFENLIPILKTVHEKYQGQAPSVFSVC

JAK3 = biological target: T3, JAK3 (Homo sapiens, UniProt P52333); assay: JAK3 inhibition (Table 4); conditions: read-out: JAK3 Ki
T3 construct: made in house; host or cells: SF9 insect cells (baculovirus)
T3 sequence (P52333 783-1124): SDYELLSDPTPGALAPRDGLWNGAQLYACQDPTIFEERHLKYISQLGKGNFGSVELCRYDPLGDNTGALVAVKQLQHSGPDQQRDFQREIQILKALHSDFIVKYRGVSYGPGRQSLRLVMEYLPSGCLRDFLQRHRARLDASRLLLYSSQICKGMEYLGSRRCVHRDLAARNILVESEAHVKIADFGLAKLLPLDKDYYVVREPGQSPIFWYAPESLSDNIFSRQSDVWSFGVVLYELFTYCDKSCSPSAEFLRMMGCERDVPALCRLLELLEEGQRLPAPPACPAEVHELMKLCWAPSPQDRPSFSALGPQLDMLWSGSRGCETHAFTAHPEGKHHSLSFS

JAK1 = biological target: T4, JAK1 (Homo sapiens, UniProt P23458); assay: JAK1 inhibition (Table 4); conditions: read-out: JAK1 Ki
T4 construct: made in house; host or cells: SF9 insect cells (baculovirus)
T4 sequence (P23458 852-1154): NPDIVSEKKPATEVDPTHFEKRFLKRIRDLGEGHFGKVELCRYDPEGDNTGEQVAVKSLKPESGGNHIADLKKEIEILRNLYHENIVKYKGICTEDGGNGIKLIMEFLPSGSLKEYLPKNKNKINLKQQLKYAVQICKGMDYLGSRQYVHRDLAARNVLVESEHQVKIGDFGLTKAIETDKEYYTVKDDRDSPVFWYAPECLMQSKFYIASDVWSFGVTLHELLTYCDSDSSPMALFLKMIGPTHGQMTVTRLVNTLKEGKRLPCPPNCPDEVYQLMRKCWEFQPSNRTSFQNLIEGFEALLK

T1 sequence (O60674 812-1132): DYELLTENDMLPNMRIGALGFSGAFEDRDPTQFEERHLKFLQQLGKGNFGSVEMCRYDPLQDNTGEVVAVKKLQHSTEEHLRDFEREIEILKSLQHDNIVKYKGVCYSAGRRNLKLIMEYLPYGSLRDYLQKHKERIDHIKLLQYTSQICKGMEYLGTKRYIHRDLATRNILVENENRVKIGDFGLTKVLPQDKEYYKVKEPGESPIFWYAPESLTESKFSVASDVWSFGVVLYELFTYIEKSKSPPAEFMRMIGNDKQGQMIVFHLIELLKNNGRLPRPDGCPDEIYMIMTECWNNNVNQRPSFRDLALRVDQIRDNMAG

| Ki (JAK2) | Ki (TYK2) | Ki (JAK3) | Ki (JAK1) | Structure (SMILES) |
| --- | --- | --- | --- | --- |
| 0.0741 µM | 0.341 µM | 0.0431 µM | 0.0893 µM | CC(C1CCCO1)n1cnc2cnc3[nH]ccc3c21 (single isomer, unassigned) [Example 417, 1-[1-(Tetrahydro-furan-2-yl)-ethyl]-1,6-dihydro-1,3,5,6-tetraaza-as-indacene] |
| 0.124 µM | 0.245 µM | 0.206 µM | 0.0343 µM | CN(C)C(=O)CNC(=O)Cc1nc2cnc3[nH]ccc3c2n1C1CCCOC1 (racemic) [Example 970, N-Dimethylcarbamoylmethyl-2-[1-(tetrahydro-pyran-3-yl)-1,6-dihydro-1,3,5,6-tetraaza-as-indacen-2-yl]-acetamide] |
| 0.369 µM | 0.749 µM | 0.261 µM | 0.0906 µM | CC(O)c1nc2cnc3[nH]ccc3c2n1C1CC2CCC1O2 (single isomer, unassigned) [Example 846, endo-1-[1-(7-Oxa-bicyclo[2.2.1]hept-2-yl)-1,6-dihydro-1,3,5,6-tetraaza-as-indacen-2-yl]-ethanol] |
| 0.311 µM | 2.56 µM | 4.06 µM | 0.217 µM | CC(C)(C)OC(=O)N1CCC[C@@H]1C(=O)N1CCC(n2cnc3cnc4[nH]ccc4c32)CC1 [Example 242, (R)-2-[4-(6H-1,3,5,6-Tetraaza-as-indacen-1-yl)-piperidine-1-carbonyl]-pyrrolidine-1-carboxylic acid tert-butyl ester] |
| 0.95 µM | 0.347 µM | 0.19 µM | 0.0872 µM | C[C@@H](O)c1nc2cnc3[nH]ccc3c2n1[C@H]1CCN(S(C)(=O)=O)C1 [Example 930, (R)-1-[1-((S)-1-Methanesulfonyl-pyrrolidin-3-yl)-1,6-dihydro-1,3,5,6-tetraaza-as-indacen-2-yl]-ethanol] |
| 0.295 µM | 0.253 µM | 0.173 µM | 0.0177 µM | O=C(Cc1nc2cnc3[nH]ccc3c2n1C1CCCOC1)N1CCC(CO)CC1 (racemic) [Example 984, 1-(4-Hydroxymethyl-piperidin-1-yl)-2-[1-(tetrahydro-pyran-3-yl)-1,6-dihydro-1,3,5,6-tetraaza-as-indacen-2-yl]-ethanone] |
| 0.036 µM | 0.158 µM | 0.00901 µM | 0.0028 µM | CCN1CCC(n2c(CCNS(C)(=O)=O)nc3cnc4[nH]ccc4c32)C(F)(F)C1 (single isomer, unassigned) [Example 805, N-{2-[1-(1-Ethyl-3,3-difluoro-piperidin-4-yl)-1,6-dihydro-1,3,5,6-tetraaza-as-indacen-2-yl]-ethyl}-methanesulfonamide] |
| 0.543 µM | 0.165 µM | 0.24 µM | 0.065 µM | C[C@@H](O)c1nc2cnc3[nH]ccc3c2n1N1CCOCC1 [Example 891, (R)-1-(1-Morpholin-4-yl-1,6-dihydro-1,3,5,6-tetraaza-as-indacen-2-yl)-ethanol] |
| 0.204 µM | 0.325 µM | 0.0919 µM | 0.0846 µM | Cc1nc2cnc3[nH]ccc3c2n1C1CCc2nc[nH]c2C1 (racemic) [Example 990, 2-Methyl-1-(4,5,6,7-tetrahydro-3H-benzoimidazol-5-yl)-1,6-dihydro-1,3,5,6-tetraaza-as-indacene] |
| 0.312 µM | 1.39 µM | 0.33 µM | 0.0253 µM | CC(C)c1nc2cnc3[nH]ccc3c2n1C1CCNCC1 [Example 168, 2-Isopropyl-1-piperidin-4-yl-1,6-dihydro-1,2,3,5,6-tetraaza-as-indacene] |
| 0.426 µM | 0.678 µM | 0.108 µM | 0.039 µM | CC(C)NC(=O)Cc1nc2cnc3[nH]ccc3c2n1C1CCNCC1 [Example 261, N-Isopropyl-2-(1-piperidin-4-yl-1,6-dihydro-1,3,5,6-tetraaza-as-indacen-2-yl)-acetamide] |
| 0.0323 µM | 0.46 µM | 0.378 µM | 0.0121 µM | CC(C)(C)OC(=O)N[C@H]1CC[C@H](n2nnc3cnc4[nH]ccc4c32)CC1 [Example 276, [4-(6H-1,2,3,5,6-Pentaaza-as-indacen-1-yl)-cyclohexyl]-carbamic acid tert-butyl ester] |
| 0.314 µM | 0.187 µM | 0.171 µM | 0.0175 µM | O=C(Cc1nc2cnc3[nH]ccc3c2n1C1CCCOC1)N1CCC(O)CC1 (racemic) [Example 986, 1-(4-Hydroxy-piperidin-1-yl)-2-[1-(tetrahydro-pyran-3-yl)-1,6-dihydro-1,3,5,6-tetraaza-as-indacen-2-yl]-ethanone] |
| 0.0978 µM | 0.399 µM | 0.177 µM | 0.0834 µM | Cc1nc2cnc3[nH]ccc3c2n1C1CC1 [Example 425, 1-Cyclopropyl-2-methyl-1,6-dihydro-1,3,5,6-tetraaza-as-indacene] |
| 0.00241 µM | 0.0127 µM | 0.0567 µM | 0.00167 µM | O=C1OC(CO)CN1[C@H]1CC[C@H](n2cnc3cnc4[nH]ccc4c32)CC1 (stereo partly drawn) [Example 602, Trans 5-hydroxymethyl-3-[4-(6H-1,2,3,5,6-tetraaza-as-indacen-1-yl)-cyclohexyl]-oxazolidin-2-one] |
| 0.0287 µM | 0.0167 µM | 0.017 µM | 0.00974 µM | Cc1nc2cnc3[nH]ccc3c2n1C1CCC(F)(F)CC1 [Example 114, 1-(4,4-Difluoro-cyclohexyl)-2-methyl-1,6-dihydro-1,2,3,5,6-tetraaza-as-indacene] |
| 0.0397 µM | 0.225 µM | 0.391 µM | 0.0214 µM | CN(C)C(=O)CN1CCC(n2cnc3cnc4[nH]ccc4c32)CC1 [Example 62, N,N-Dimethyl-2-[4-(6H-1,3,5,6-tetraaza-as-indacen-1-yl)-piperidin-1-yl]acetamide] |
| 0.00166 µM | 0.0022 µM | 0.00033 µM | 0.00112 µM | C[C@@H](O)c1nc2cnc3[nH]cc(Br)c3c2n1C1CCC(CC#N)CC1 (stereo partly drawn) [Example 1010, {4-[8-Bromo-2-((R)-1-hydroxy-ethyl)-6H-1,3,5,6-tetraaza-as-indacen-1-yl]-cyclohexyl}-acetonitrile] |
| 0.193 µM | 0.696 µM | 1.12 µM | 0.0254 µM | CC(C)(C)OC(=O)N1CCC(C)(n2cnc3cnc4[nH]ccc4c32)CC1 [Example 132, 4-Methyl-4-(6H-1,2,3,5,6-tetraaza-as-indacen-1-yl)-piperidine-1-carboxylic acid tert-butyl ester] |
| 0.0239 µM | 0.00793 µM | 0.098 µM | 0.00172 µM | C[C@@H](O)c1nc2cnc3[nH]ccc3c2n1[C@H]1CC[C@H](NCC(F)(F)F)C1 [Example 1008, (R)-1-{1-[(1S,3S)-3-(2,2,2-Trifluoro-ethylamino)-cyclopentyl]-1,6-dihydro-1,3,5,6-tetraaza-as-indacen-2-yl}-ethanol] |
| 0.0156 µM | 0.0065 µM | 0.028 µM | 0.00382 µM | COC[C@H]1CC[C@H](n2c(CO)nc3cnc4[nH]ccc4c32)CC1 [Example 636, Trans[1-(4-methoxymethyl-cyclohexyl)-1,6-dihydro-1,2,3,5,6-tetraaza-as-indacen-2-yl]-methanol] |
| 0.0484 µM | 0.226 µM | 0.0613 µM | 0.00503 µM | CC(C)C(=O)NCCc1nc2cnc3[nH]ccc3c2n1C1CCN(CCC#N)CC1 [Example 378, N-(2-{1-[1-(2-Cyano-ethyl)-piperidin-4-yl]-1,6-dihydro-1,3,5,6-tetraaza-as-indacen-2-yl}-ethyl)-isobutyramide] |
| 0.0977 µM | 0.296 µM | 0.404 µM | 0.0217 µM | Cc1nc2cnc3[nH]ccc3c2n1C1(C)CCN(S(=O)(=O)c2cccnc2)CC1 [Example 740, 2-Methyl-1-[4-methyl-1-(pyridine-3-sulfonyl)-piperidinyl-4-yl]-1,6-dihydro-1,3,5,6-tetraaza-as-indacene] |
| 0.00528 µM | 0.0315 µM | 0.021 µM | 0.00391 µM | CC(C)(C#N)C(=O)N1CCC[C@@H](n2cnc3cnc4[nH]ccc4c32)C1 [Example 297, 2,2-Dimethyl-3-oxo-3-[(R)-3-(6H-1,3,5,6-tetraaza-as-indacen-1-yl)-piperidin-1-yl]-propionitrile] |
| 0.0569 µM | 0.356 µM | 0.18 µM | 0.0385 µM | CCN1CC[C@@H](n2nnc3cnc4[nH]ccc4c32)[C@@H](F)C1 [Example 522, 1-((3S,4R)-1-Ethyl-3-fluoro-piperidin-4-yl)-1,6-dihydro-1,2,3,5,6-pentaaza-as-indacene] |
| 0.00372 µM | 0.0203 µM | 0.0245 µM | 0.00149 µM | N#CCC(=O)N1CCC[C@@H](n2nnc3cnc4[nH]ccc4c32)C1 [Example 19, 3-Oxo-3-[(R)-3-(6H-1,2,3,5,6-pentaaza-as-indacen-1-yl)-piperidin-1-yl]propionitrile] |
| 0.00563 µM | 0.00758 µM | 0.0203 µM | 0.00055 µM | CS(=O)(=O)NCCc1nc2cnc3[nH]ccc3c2n1C1CC2CCC1C2 (stereo not shown) [Example 694, N-[2-(1-Bicyclo[2.2.1]hept-2-yl-1,6-dihydro-1,2,3,5,6-tetraaza-as-indacen-2-yl)-ethyl]-methanesulfonamide] |

| Structure (SMILES) | Ki (JAK2) | Ki (TYK2) | Ki (JAK3) | Ki (JAK1) |
| --- | --- | --- | --- | --- |
| CC(O)c1nc2cnc3[nH]ccc3c2n1CC1CCCO1 (stereo not shown) [Example 699, 1-[1-(Tetrahydro-furan-2-ylmethyl)-1,6-dihydro-1,2,3,5,6-tetraaza-as-indacen-2-yl]-ethanol] | 0.131 µM | 1.07 µM | 0.28 µM | 0.235 µM |
